No end group written: not given here.
Assays:
mtDNA (120 bp) = assay: mtDNA-peptide binding (pull-down) assay; parameters: species or system mouse; conditions: biotinylated peptide, Streptavidin Dynabeads
Text: C-terminal biotinylated peptides corresponding to amino acid residues from 1 to 26 of mouse VDAC1 (SEQ ID NO:1) and a mutant peptide (SEQ ID NO:72) with acetylation (N-terminus) and amidation (C-terminus) were synthesized and purified by Genscript (Piscataway, N.J., USA). Mitochondrial DNA was amplified using PCR with mtDNA specific primer of the D-loop region. The primers used were as follow (5′-3′): mtDNA 120 bp forward (SEQ ID NO:73), and reverse (SEQ ID NO:74). Purified mtDNA (120 bp) was incubated rotating end-over-end with peptides and Streptavidin Dynabeads (Invitrogen) for 18 h at 4° C. The peptides were captured by the Streptavidin Dynabeads, and unbound peptides and free mtDNA were removed by extensive washing with PBS. The samples were treated with proteinase K for 30 min at 60° C., and the mtDNA in the supernatant was purified with QIAquick Nucleotide Removal Kit (Qiagen). The purified mtDNA was quantified using real-time RT-PCR with the D-loop3 primers.

VDAC1/3−/− MEFs = assay: ISG expression in VDAC1/3−/− MEFs; format: cell-based, mouse; conditions: treatment with Ca2+ chelator BAPTA
Protocol: (§1) The following mouse embryonic fibroblasts (MEFs) were used: VDAC1/3^−/− (MEFs) and Bak/Bax^−/− MEFs with the respective WT counterparts; WT and cGAS^−/− MEFs; WT and IRF3/IRF7^−/− MEFs; and WT and MICU1^−/− MEFs. All MEFs were grown in complete Dulbecco's modified Eagle's medium (DMEM, Corning) supplemented with 10% fetal bovine serum (FBS, Sigma-Aldrich) and 1% penicillin and streptomycin (antibiotics, Gibco) at 37° C. with 5% CO2. LMTK-1 cells were grown in complete RPMI 1640 medium (Gibco) supplemented with 10% FBS and antibiotics. The LMTK^−-derived cell line lacking mtDNA (ρ^o), LMEB-4, was grown in LMTK-1 growth medium supplemented with uridine (50 μg/ml, Sigma-Aldrich) and sodium pyruvate (1 mM, Gibco). WT (ρ^o) and EndoG^−/− (ρ^o) MEFs were generated by incubation with ethidium bromide (Invitrogen) in complete DMEM supplemented with 15% FBS, antibiotics, uridine (50 μg/ml), and pyruvate (1 mM) for 5 months.
(§2) Total RNA was extracted using RNeasy Plus Mini Kit (Qiagen) according to the manufacturer's instructions. […] GAPDH was used as an internal standard of mRNA expression, and the ratio of the target gene expression to GAPDH expression was calculated using LightCycler 96 Instrument software (Roche). The quality of real-time RT-PCR results was evaluated based on the melting temperature (Tm) of a DNA fragment and melting curve analysis.

EndoG−/− MEFs [1] = assay: ISG expression in EndoG−/− MEFs (real-time PCR / western blot); format: cell-based, mouse
Protocol: Total RNA was extracted using RNeasy Plus Mini Kit (Qiagen) according to the manufacturer's instructions. The first-strand cDNA was synthesized from 2 μg purified mRNA using Accupower RT PreMix (BioNeer). The reaction mixtures were incubated at 42° C. for 60 min and 94° C. for 5 min. Real-time RT-PCR was performed using the LightCycler 96 system (Roche Life Science) with SYBR Green master mix (Roche). The primers used were as follow (5′-3′): EndoG forward (SEQ ID NO:36), and reverse (SEQ ID NO:37); Cxcl10 forward (SEQ ID NO:38), and reverse (SEQ ID NO:39); GAPDH forward (SEQ ID NO:40), and reverse (SEQ ID NO:41); Ifi44 forward (SEQ ID NO:42), and reverse (SEQ ID NO:43); Ifit1 forward (SEQ ID NO:44), and reverse (SEQ ID NO:45); Ifit3 forward (SEQ ID NO:46), and reverse (SEQ ID NO:47); IFNα4 forward (SEQ ID NO:48), and reverse (SEQ ID NO:49); IFNβ forward (SEQ ID NO:50), and reverse (SEQ ID NO:51); Iigp1 forward (SEQ ID NO:52), and reverse (SEQ ID NO:53); ISG15 forward (SEQ ID NO:54), and reverse (SEQ ID NO:55); Oasl2 forward (SEQ ID NO:56), and reverse (SEQ ID NO:57); Rsad2 forward (SEQ ID NO:58), and reverse (SEQ ID NO:59); USP18 forward (SEQ ID NO:60), and reverse (SEQ ID NO:61); VDAC1 forward (SEQ ID NO:62), and reverse (SEQ ID NO:63). GAPDH was used as an internal standard of mRNA expression, and the ratio of the target gene expression to GAPDH expression was calculated using LightCycler 96 Instrument software (Roche). The quality of real-time RT-PCR results was evaluated based on the melting temperature (Tm) of a DNA fragment and melting curve analysis.

TFAM^KD MEFs = assay: ISG expression in TFAM KD MEFs; format: cell-based, mouse
Protocol: as §1, with “months. […]” for “months.”
as §2, with “analysis. […]” for “analysis.”

MICU1−/− MEFs = assay: ISG induction in MICU1−/− MEFs; format: cell-based, mouse; conditions: treatment with DIDS
Protocol: as §1, §2

LMEB-4 (ρ0) cells = assay: Ifi44 expression in LMEB-4 (ρ0) cells lacking mtDNA; format: cell-based; conditions: 100 μM DIDS
Protocol: as §1, §2

[2] = test system: mitochondria from MICU1−/− MEFs; assay: mtDNA release from isolated mitochondria of MICU1−/− MEFs; parameters: species or system mouse; conditions: buffer lacking Ca2+, with or without DIDS
Protocol: Therefore, it was postulated that VDAC may be increasing mtDNA release in living cells merely by increasing mitochondrial Ca^2+ and promoting PTP formation. To examine this possibility, mitochondria from MICU1^−/− MEFs, which already have elevated Ca^2+ and ROS levels (FIG. 6F), were isolated and incubated in a buffer lacking Ca^2+ either with or without DIDS.

LMTK-1 (WT) cells = assay: Ifi44 expression in LMTK-1 (WT) cells; format: cell-based; conditions: 100 μM DIDS
Protocol: as §1, §2

143B cells = assay: Quantification of fimtDNA (free intra-mtDNA fragments); format: cell-based
Protocol: For the quantification of fimtDNA release, 143B cells were resuspended in mitochondrial isolation buffer and subsequently homogenized 30 times with pestle B (small clearance). The homogenized samples were centrifuged at 1,000 g for 10 min at 4° C. The supernatant was transferred to a new tube and centrifuged at 1,000 g for 5 min at 4° C., and the mitochondrial pellet was collected after the centrifugation of the final supernatant at 11,500 g for 10 min at 4° C. Isolated mitochondria were resuspended in 50 μl CSK buffer containing 10 mM PIPES pH 6.8, 300 mM sucrose, 100 mM NaCl, 3 mM MgCl2, 1 mM EGTA, and 0.05% Triton X-100, for 5 min on ice, and the supernatant (fimtDNA) and CSK-pellet fractions were collected after centrifugation at 17,000 g for 30 min at 4° C. A 1:20 dilution of CSK-sup was used for real-time PCR with fimtDNA primers in each reaction. The primers used were as follow (5′-3′): hfimtNDA forward (SEQ ID NO:70), and reverse (SEQ ID NO:71). CSK-pellet was resuspended in 100 μl lysis buffer containing 20 mM EDTA and proteinase K and incubated at 56° C. overnight. The digested pellet was diluted with water (1:20 to 1:100) and heated at 95° C. for 20 min to inactivate proteinase K, and the CSK-pellet fraction was used for real-time PCR in each reaction. The fimtDNA in CSK-sup was normalized to the mtDNA in CSK-pellet.

EndoG−/− MEFs [3] = assay: ROS levels in EndoG−/− MEFs; format: cell-based, mouse; conditions: Mito-TEMPO (10 μM), 3 days
Protocol: Cellular cGAMP levels were measured by LC/MS (Agilent Technologies) using 5% perchloric acid extracts of WT and EndoG^−/− MEFs. Intracellular ROS production in MEFs was measured using the oxidative stress indicator CM-H2DCFDA (Invitrogen) with flow cytometry (FACS). Mitochondrial ROS in MEFs was evaluated using the mitochondrial superoxide indicator MitoSOX (Invitrogen) with a confocal microscope (LSM880, Zeiss, and the fluorescence intensity was measured using Zen software (Zeiss). To quantify mitochondrial ROS in human PBMCs, the cells were obtained from heparinized blood using a Ficoll-Paque gradient. The cells were washed with PBS, resuspended in RPMI 1640 medium, and transferred to 96-well plates. Subsequently, the cells were stimulated with calcium ionophore A23187 (25 μM), VBIT-4 (5 μM), and MitoSOX (2 μM) (Life Technologies). After 1 h at 37° C., the fluorescence was measured at 510/595 nm using a microplate reader (Synergy HTX; BIOTEK). Cells without dye were used as the blank control.

[4] = treatment with Ca2+ chelator BAPTA
[5] = DIDS (100 μM), real-time PCR and western blot

Compound: 26 amino acid VDAC1 N-terminal peptide: C-terminal biotinylated peptide corresponding to amino acid residues 1 to 26 of mouse VDAC1 (MAVPPTYADLGKSARDVFTKGYGFGL-biotin)
- pull-down of mtDNA fragment (mtDNA (120 bp)): pulled-down the mtDNA fragment in dose-dependent manner

Compound: O=C(O)CN(CC(=O)O)c1ccccc1OCCOc1ccccc1N(CC(=O)O)CC(=O)O [BAPTA]
- ISG expression (VDAC1/3−/− MEFs): not
- ISG expression (EndoG−/− MEFs [1]; [4]): decreased
- ISG expression (TFAM^KD MEFs; [4]): decreased

Compound: O=S(=O)(O)c1cc(N=C=S)ccc1C=Cc1ccc(N=C=S)cc1S(=O)(=O)O [DIDS, 4,4′-Diisothiocyanatostilbene-2,2′-disulfonate]
- ISG induction (MICU1−/− MEFs): abrogated
- ISG (Ifi44) expression (LMEB-4 (ρ0) cells): not
- mtDNA released during incubation [2]: decreased in a concentration-dependent manner
- ISG expression (EndoG−/− MEFs [1]; [5]): inhibited
- ISG expression (TFAM^KD MEFs; [5]): inhibited
- ISG (Ifi44) expression (LMTK-1 (WT) cells): inhibited

Compound: CO[C@H]1C[C@@H]2CC[C@@H](C)[C@@](O)(O2)C(=O)C(=O)N2CCCC[C@H]2C(=O)O[C@H]([C@H](C)C[C@@H]2CC[C@@H](OCCO)[C@H](OC)C2)CC(=O)[C@H](C)/C=C(\C)[C@@H](O)[C@@H](OC)C(=O)[C@H](C)C[C@H](C)/C=C/C=C/C=C/1C [everolimus]
- fimtDNA (143B cells; 100 nM everolimus): decreased

Compound: CC1(C)CC(NC(=O)C[P+](c2ccccc2)(c2ccccc2)c2ccccc2)CC(C)(C)N1[O] [mito-TEMPO]
- mROS (EndoG−/− MEFs [3]): reduced
- ISG expression (EndoG−/− MEFs [1]; Mito-TEMPO (10 μM), 3 days): reduced
- fimtDNA (143B cells; 50 nM mito-TEMPO): decreased

Compound: VDAC1 N-terminal mutant peptide: VDAC1 N-terminal peptide in which K12, R15, K20 were changed to Ala (MAVPPTYADLGASAADVFTAGYGFGL)
- pull-down of mtDNA fragment (mtDNA (120 bp)): not
